Assay results reported in patent publication US7465814B2, “Sulfonate compound and fluorescent probe using the same” (priority 2003, dated 2008).

How the values were obtained:
[1] = Fluorescent response to H2O2 (Table 1); format: biochemical; conditions: relative fluorescence intensity, blank = 10; probe 21.3 μM, H2O2 50 μM, 37° C., 10 minutes
Protocol: (§1) Moreover, in other conditions than those of the above-described tests, reactivity of all of the compounds 1a to 1d with H2O2, other various kinds of nucleophilic agents, reducing agents and the like also was tested, respectively. More specifically, fluorescent responses of 1a to 1d with respect to a XO-HPX system, a XO-HPX-SOD system, H2O2, ascorbic acid, 1,4-hydroquinone, propylamine, diethylamine, glucose, esterase, a cytochrome P450 reductase+NADPH system, and a diaphorase+NADH system were measured, respectively. Operational processes thereof will be described below. Firstly, 1a to 1d and the above-described reagents were dissolved in HEPES of 10 mM having a pH of 7.4 so as to prepare solutions, respectively. Next, a 96 wellmicroplate was provided, where any of the solutions of 1a to 1d (25 μM, 170 μL) was poured into each of the wells, and furthermore, 30 μL of a blank solution or 30 μL of the solution of the reagent to be reacted therewith was added thereto. Final concentrations of the solutions in the wells were adjusted so that concentrations of the solutions of 1a to 1d respectively could be 21.3 μM, that of XO could be 13.1 mU/mL, those of HPX, H2O2, ascorbic acid, 1,4-hydroquinone, propylamine, diethylamine, glucose, NADPH and NADH respectively could be 50 μM, that of cytochrome P450 reductase could be 68 mU/mL, that of diaphorase could be 65 mU/mL, and that of esterase could be 0.5 U/mL, respectively. Then, after they reacted in the wells at 37° C. for 10 minutes, fluorescent responses were measured respectively. Fluorescence intensity measurement was conducted by using an ETC-272 Peltier thermostatted single cell holder (trade name) manufactured by JASCO Corporation or a SpectraMax GeminiEM fluorescence plate reader (trade name) manufactured by Molecular Devices Corporation provided with a FP-750 spectrofluorometer (trade name) manufactured by JASCO Corporation, and by setting excitation wavelengths and emission wavelengths so that those of 1a, 1b and 1c respectively could be 485 nm and 515 nm, and those of 1d respectively could be 511 nm and 540 nm.

[2] = Fluorescent response to 1,4-hydroquinone (Table 1); format: biochemical; conditions: relative fluorescence intensity, blank = 10; probe 21.3 μM, 1,4-hydroquinone 50 μM, 37° C., 10 minutes
Protocol: as §1

[3] = Fluorescent response to glucose (Table 1); format: biochemical; conditions: relative fluorescence intensity, blank = 10; probe 21.3 μM, glucose 50 μM, 37° C., 10 minutes
Protocol: as §1

[4] = Tracking fluorescence with enzymatically produced superoxide (FIG. 1a-c); format: biochemical
Excerpt: This figure is a graph showing results that are obtained by tracking fluorescence by allowing the compound 1d to react with H2O2 or superoxide produced enzymatically, a horizontal axis thereof represents a reaction time (second), and a vertical axis thereof represents a fluorescence intensity (au). In the figure, (a) represents a result obtained by a reaction in the presence of HPX and XO, (b) represents a result obtained by a reaction in the presence of HPX, XO and SOD, (c) represents a result obtained by a reaction under an anaerobic condition in the presence of HPX, XO and SOD, and (d) represents a result obtained by a reaction with only H2O2. The test results shown in FIG. 1 will be described below in further detail.
More specifically, the enzyme reaction of the compound 1d (16 μM), xanthine oxidase (XO, 0.01 U/mL) and hypoxanthine (HPX, 40 μM) at 37° C. in a HEPES buffer solution (pH 7.4, 10 mM, 2.5 mL) was tracked at an excitation wavelength of 511 nm and an emission wavelength of 531 nm, then a fluorescent response caused by the formation of the compound 2d (above Scheme 4) was observed, and a progressive curve shown in FIG. 1(a) was obtained.
A specific description thereof will be provided below. NBT has a property of being reduced by superoxide O^2−•, and thus is used for a probe for spectrophotometric measurement and the like. However, NBT has a serious problem of being reduced not only by superoxide but also by reductase that exists in a biosystem.

[5] = Voltammetry measurement; format: physicochemical; conditions: CH3CN—H2O (3:1) containing Et4NClO4
[6] = Capability as superoxide-detecting fluorescent probe (reactivity with superoxide); format: biochemical
Protocol: Then, by mainly using the compound 1d as a testing compound, the capability thereof as a superoxide-selective fluorescent probe was evaluated, and moreover, a test in a cell system also was conducted. These tests will be described below.
Thus, it is thought that each compound synthesized from a combination of: a phenolic colorant; and a 2,4-dinitrobenzenesulfonyl group, a 4-trifluoromethyl-2-nitrobenzenesulfonyl group or a 4-nitrobenzenesulfonyl group can be used as a superoxide-detecting fluorescent probe similarly. An example of the usage thereof will be shown in Scheme 8 below. Furthermore, it can be expected that a compound for a fluorescent probe having characteristics that are suitable for its application purpose can be designed and developed freely, by designing the compound of the present invention freely within the limitation defined by the general formula (I) and using the fluorescence mechanism developed by the inventors of the present invention, without being limited to the above-described combinations. Examples of the application purpose of the compound of the present invention are varied, including an application to a faintly coloring technique using superoxide.

O=C1OC2(c3ccccc31)c1cc(F)c(OS(=O)(=O)c3ccc([N+](=O)[O-])cc3[N+](=O)[O-])c(F)c1Oc1c2cc(F)c(OS(=O)(=O)c2ccc([N+](=O)[O-])cc2[N+](=O)[O-])c1F [Compound 1d]
fluorescent response, H2O2 [1]: 11 | fluorescent response, 1,4-hydroquinone [2]: 11 | fluorescent response, glucose [3]: 10 | fluorescence response with HPX and XO, FIG. 1(a) ([4]; 1d 16 μM, XO 0.01 U/mL, HPX 40 μM, 37° C., HEPES pH 7.4, ex 511 nm, em 531 nm): increase a fluorescence response significantly in a short period of time | production of 2d from 1d caused by XO reductant, FIG. 1(c) ([4]; HPX, XO and SOD under the anaerobic condition): proceeded at a very low speed | fluorescence response with HPX, XO and SOD, FIG. 1(b) ([4]; as FIG. 1(a) plus SOD 40 U/mL): inhibited significantly | cathode response [5]: about −0.5 V vs SCE | fluorescence response by reacting with superoxide [6]: particularly superior in sensitivity
